Some test systems named below: Acinetobacter baumannii; Bacillus subtilis; Escherichia coli; Escherichia coli UB1005; Pseudomonas aeruginosa; Staphylococcus aureus.
Assay in all cases: ≥ marks a high value that may be exact or a test limit, other limits are often not marked, values filed in µg/mL are converted to µM
Assay [1] relates to Escherichia coli ATCC 25922.
Assay [2] relates to Klebsiella pneumoniae ATCC 700603.
Assay [3] concerns Pseudomonas aeruginosa ATCC 9027.
Assay [4] deals with Staphylococcus aureus ATCC 25923.
Assay [5] has as its system Micrococcus luteus ATCC 9341.
In assay [6] the test system is Staphylococcus aureus ATCC 33591.
The subject of assay [7] is Salmonella enterica subsp. enterica serovar Typhimurium C77-31.
The test system of assay [8] is Staphylococcus aureus ATCC 29213.
Assay [9] relates to Staphylococcus epidermidis ATCC 12228.

SMILES strings stand for the structures. In brackets after ≈: the same amount, converted by molar mass.

As a reminder, the MIC is the lowest concentration found to suppress growth. Low values mean inhibition by little substance, high ones a need for much substance. Regarding `CC[C@H](C)[C@H](NC(=O)[C@H](C)N)C(=O)N[C@@H](CC(C)C)C(=O)N[C@@H](CCCN=C(N)N)C(=O)N[C@@H](CCCCN)C(=O)N[C@@H](C)C(=O)N[C@H](C(=O)N[C@@H](CCCN=C(N)N)C(=O)N[C@@H](CCCN=C(N)N)C(=O)N[C@@H](CC(C)C)C(=O)N[C@H](C(=O)N[C@@H](CCCCN)C(=O)N[C@@H](CC(C)C)C(=O)N[C@H](C(=O)N[C@H](C(N)=O)C(C)C)[C@@H](C)CC)C(C)C)[C@@H](C)O` [AILRKATRRLVKLIV], the MIC with Acinetobacter baumannii is 6.25 µM (≈ 10.9 µg/mL); in assay [1], 20 µM (≈ 35 µg/mL); in assay [2] it was greater than 25 µM; in assay [3], 20 µM (≈ 35 µg/mL); in assay [4], greater than 25 µM.
`CC[C@H](C)[C@H](N)C(=O)N[C@@H](CC(C)C)C(=O)N1CCC[C@H]1C(=O)N[C@@H](Cc1c[nH]c2ccccc12)C(=O)N[C@@H](CC(=O)O)C(=O)N[C@@H](Cc1c[nH]c2ccccc12)C(=O)N1CCC[C@H]1C(=O)N[C@@H](Cc1c[nH]c2ccccc12)C(=O)N[C@@H](Cc1c[nH]c2ccccc12)C(=O)N1CCC[C@H]1C(=O)N[C@@H](Cc1c[nH]c2ccccc12)C(=O)N[C@@H](CC(=O)O)C(=O)N[C@@H](CC(=O)O)C(N)=O` [ILPWDWPWWPWDD] showed an MIC in assay [5] of no less than 100 µM.
The same measure, in the same setting: the figure for `CC[C@H](C)[C@H](N)C(=O)N[C@@H](CC(C)C)C(=O)N1CCC[C@H]1C(=O)N[C@@H](Cc1c[nH]c2ccccc12)C(=O)N[C@@H](CCC(=O)O)C(=O)N[C@@H](Cc1c[nH]c2ccccc12)C(=O)N1CCC[C@H]1C(=O)N[C@@H](Cc1c[nH]c2ccccc12)C(=O)N[C@@H](Cc1c[nH]c2ccccc12)C(=O)N1CCC[C@H]1C(=O)N[C@@H](Cc1c[nH]c2ccccc12)C(=O)N[C@@H](CCC(=O)O)C(=O)N[C@@H](CCC(=O)O)C(N)=O` [ILPWEWPWWPWEE] is no less than 100 µM; for `CC[C@H](C)[C@H](N)C(=O)N[C@@H](CC(C)C)C(=O)N1CCC[C@H]1C(=O)N[C@@H](Cc1c[nH]c2ccccc12)C(=O)N[C@@H](CCCCN)C(=O)N[C@@H](Cc1c[nH]c2ccccc12)C(=O)N1CCC[C@H]1C(=O)N[C@@H](Cc1c[nH]c2ccccc12)C(=O)N[C@@H](Cc1c[nH]c2ccccc12)C(=O)N1CCC[C@H]1C(=O)N[C@@H](Cc1c[nH]c2ccccc12)C(N)=O` [ILPWKWPWWPW] it is 0.8 µM (≈ 1.28 µg/mL).
On to `CC[C@H](C)[C@H](N)C(=O)N[C@@H](CC(N)=O)C(=O)N[C@@H](Cc1c[nH]c2ccccc12)C(=O)N[C@@H](CO)C(=O)N[C@@H](CCCCN)C(=O)N[C@H](C(=O)N[C@@H](Cc1ccccc1)C(=O)N[C@@H](CCC(=O)O)C(=O)N[C@@H](CCCCN)C(=O)N[C@H](C(=O)N[C@@H](CCCCN)C(=O)N[C@@H](CC(N)=O)C(=O)N[C@@H](CC(C)C)C(=O)N[C@H](C(N)=O)C(C)C)C(C)C)[C@@H](C)CC` [INWSKIFEKVKNLV], for which the MIC in the assay with Bacillus subtilis was 17 µM (≈ 29.2 µg/mL); in the assay with Escherichia coli it was 12.5 µM (≈ 21.5 µg/mL).
Regarding `CC[C@H](C)[C@H](NC(=O)[C@@H](N)CCCCN)C(=O)N[C@@H](Cc1c[nH]c2ccccc12)C(=O)N[C@@H](Cc1ccccc1)C(=O)N[C@@H](CCC(N)=O)C(=O)N[C@@H](CC(N)=O)C(=O)N[C@@H](CCCCN)C(=O)N[C@@H](CCCCN)C(=O)N[C@@H](CCSC)C(=O)N[C@@H](CCCCN)C(=O)N[C@@H](Cc1c[nH]c2ccccc12)C(=O)N[C@@H](CCCCN)C(=O)N[C@@H](CCCCN)C(N)=O` [KIWFQNKKMKWKK], the minimum inhibitory concentration (MIC) was 256 µM (≈ 459 µg/mL) in assay [1] and no less than 256 µM in assay [6].
Molecule `CC[C@H](C)[C@@H]1NC(=O)[C@@H]2CSSC[C@@H]3NC(=O)[C@H](Cc4ccccc4)NC(=O)[C@H](CO)NC(=O)[C@H](CO)NC(=O)[C@H](C(C)C)NC(=O)[C@H](C(C)C)NC(=O)[C@@H]4CCCN4C(=O)[C@@H](NC(=O)[C@H](CCSC)NC(=O)[C@H](Cc4ccc(O)cc4)NC(=O)[C@H](CCC(=O)O)NC(=O)[C@H](CO)NC(=O)[C@H](CCCCN)NC(=O)[C@H](CC(N)=O)NC(=O)[C@H](CC(C)C)NC(=O)[C@@H](NC(=O)[C@H](CCC(=O)O)NC(=O)[C@H](CCCCN)NC(=O)[C@@H](NC(=O)[C@H](CCCCN)NC(=O)[C@H](CC(=O)O)NC(=O)[C@@H](NC(=O)[C@H](C)NC(=O)[C@H](CCC(N)=O)NC(=O)[C@H](CC(N)=O)NC(=O)[C@H](CC(C)C)NC(=O)[C@H](CCCCN)NC(=O)[C@H](CCCCN)NC(=O)[C@H](CCCCN)NC(=O)[C@H](CC(C)C)NC(=O)[C@H](CCCCN)NC(=O)[C@H](CCC(N)=O)NC(=O)CNC(=O)[C@@H](NC(=O)[C@@H](NC(=O)[C@H](CO)NC(=O)[C@@H](N)CCCCN)[C@@H](C)O)C(C)C)C(C)C)C(C)C)C(C)C)CSSC[C@H](NC(=O)[C@H](CCC(N)=O)NC(=O)CNC(=O)[C@H](CO)NC(=O)[C@H](CCCCN)NC(=O)CNC(=O)[C@H](CC(C)C)NC(=O)[C@H](CCCN=C(N)N)NC(=O)[C@H](C)NC(=O)[C@H](CSSC[C@@H](C(=O)O)NC1=O)NC(=O)[C@H](Cc1cnc[nH]1)NC(=O)[C@H](CCC(N)=O)NC(=O)[C@H](CCCCN)NC3=O)C(=O)N[C@@H](CC(=O)O)C(=O)N[C@@H](CC(C)C)C(=O)N[C@@H](CC(C)C)C(=O)N[C@@H](CCC(=O)O)C(=O)N2` [KSTVGQKLKKKLNQAVDKVKEVLNKSEYMCPVVSSFCKQHCARLGKSGQCDLLECIC] yielded an MIC in the assay with Bacillus subtilis of 0.5 µM (≈ 3.17 µg/mL).
Regarding `CC[C@H](C)[C@H](NC(=O)[C@H](CO)NC(=O)[C@H](C)NC(=O)[C@@H](NC(=O)[C@H](CCCCN)NC(=O)[C@H](CCCCN)NC(=O)[C@H](Cc1c[nH]c2ccccc12)NC(=O)[C@H](CC(N)=O)NC(=O)[C@@H](N)CO)[C@@H](C)CC)C(=O)NCC(=O)N[C@@H](CCCCN)C(=O)N[C@@H](CCC(=O)O)C(=O)N[C@H](C(=O)N[C@@H](CC(C)C)C(=O)N[C@@H](CCCCN)C(=O)N[C@@H](C)C(=O)N[C@@H](CC(C)C)C(N)=O)C(C)C` [SNWKKIASIGKEVLKAL], the MIC against Bacillus subtilis was found to be 30 µM (≈ 56.5 µg/mL); in the assay with Escherichia coli it was 25 µM (≈ 47.1 µg/mL).
In turn, `NC(=O)[C@H](CCCN=C(N)N)NC(=O)[C@H](CCCN=C(N)N)NC(=O)[C@H](Cc1c[nH]c2ccccc12)NC(=O)[C@@H]1CCCN1C(=O)[C@H](Cc1c[nH]c2ccccc12)NC(=O)[C@H](Cc1c[nH]c2ccccc12)NC(=O)[C@@H]1CCCN1C(=O)[C@@H](N)Cc1c[nH]c2ccccc12` [WPWWPWRR] returned a minimum inhibitory concentration (MIC) in assay [5] of 1.6 µM (≈ 2.03 µg/mL). This counts as single-digit micromolar.
In the case of `CC(C)C[C@H](NC(=O)[C@H](CCCN=C(N)N)NC(=O)[C@H](Cc1c[nH]c2ccccc12)NC(=O)[C@H](CCCN=C(N)N)NC(=O)[C@@H](NC(=O)[C@H](CCCN=C(N)N)NC(=O)[C@H](Cc1c[nH]c2ccccc12)NC(=O)[C@H](CCCN=C(N)N)NC(=O)[C@H](CC(C)C)NC(=O)[C@H](CCCN=C(N)N)NC(=O)[C@@H](N)Cc1c[nH]c2ccccc12)[C@@H](C)O)C(=O)N[C@@H](CCCN=C(N)N)C(N)=O` [WRLRWRTRWRLR], the MIC against Acinetobacter baumannii is 4 µM (≈ 7.36 µg/mL); in assay [1] it was 4 µM (≈ 7.36 µg/mL); with Escherichia coli UB1005, 4 µM (≈ 7.36 µg/mL); with Escherichia coli, 2 µM (≈ 3.68 µg/mL); in the assay with Pseudomonas aeruginosa it was 16 µM (≈ 29.4 µg/mL); in assay [7], 4 µM (≈ 7.36 µg/mL). Besides, the MIC (in assay [4]; in [8]; against Staphylococcus aureus; in assay [9]) was 2 µM (≈ 3.68 µg/mL) throughout.
Regarding `CC(C)[C@H](NC(=O)[C@H](CCCN=C(N)N)NC(=O)[C@H](Cc1c[nH]c2ccccc12)NC(=O)[C@H](CCCN=C(N)N)NC(=O)[C@@H](NC(=O)[C@H](CCCCN)NC(=O)[C@H](Cc1c[nH]c2ccccc12)NC(=O)[C@H](CCCN=C(N)N)NC(=O)[C@@H](NC(=O)[C@H](CCCN=C(N)N)NC(=O)[C@@H](N)Cc1c[nH]c2ccccc12)C(C)C)C(C)C)C(=O)N[C@@H](CCCCN)C(N)=O` [WRVRWKVRWRVK], the minimal inhibitory concentration (MIC) in the assay on Acinetobacter baumannii is 2.83 µM (≈ 4.96 µg/mL); in assay [1] it was 4 µM (≈ 7.02 µg/mL); against Escherichia coli UB1005, 2 µM (≈ 3.51 µg/mL); against Escherichia coli, 1 µM (≈ 1.75 µg/mL); against Pseudomonas aeruginosa it was 4 µM (≈ 7.02 µg/mL); in assay [7] it was 2 µM (≈ 3.51 µg/mL). Moreover, the MIC in assay [4] was 2 µM (≈ 3.51 µg/mL); in assay [8], 1 µM (≈ 1.75 µg/mL); in the assay with Staphylococcus aureus, 2 µM (≈ 3.51 µg/mL); in assay [9], 2 µM (≈ 3.51 µg/mL).

The values above are taken from DBAASP.
